In patent US20030092010A1, “Molecular switches” (priority 1999, published 2003):
*1 amine or outer side, *2 acyl side, *3 side chain or, on linkers, in order; H or OH if unused. Where a SMILES comes first, the peptide text is derived from it. Bridges are numbered along the chain shown (N, C = ends). Roman numbers before positions name the chains, in order. [ ]: non-standard residue; d: D form. Actinocin(9to1) = Cc1c2oc3c(C)ccc(C(=O)[*:1])c3nc-2c(C(=O)[*:2])c(N)c1=O; NMeV = CN[C@H](C(=O)O)C(C)C; Sar = CNCC(=O)O

Assays:
DNA sequence AGCTTGGCG = test: phage ELISA: zinc finger phage binding to DNA target in presence and absence of actinomycin D; conditions: FIG. 2; phage AD clone 1 and 6
Description: Essentially the method was the same as used in the previous section using four rounds of a preselection step followed by a selection step, washing and elution. Differences in the method are described. The preselection step comprised of 7.5 μmol of biotinylated DNA target site immobilised on 18.75 μl streptavidin coated beads (Dynal) in a 100 μl mixture containing 4 μl phage library 96 μl PBS, 2% Marvel. 1% Tween-20. 50 μM ZnCl2 for 1 hour at room temperature with constant mixing. Phage selections were made in streptavidin coated tubes with the phage supernatant, 5 nM biotinylated target DNA, 10 μM actinomycin D in the presence of 1 μg poly [d(I-C)] competitor. The selections were incubated for 1 hour at room temperature. The bound phage were washed and eluted as described above.
ELISA was performed as described above but using 5 nM biotinylated target DNA. 0.25 μg poly[d(I−C)] competitor in the assay and 10 μM actinomycin D where appropriate. Phage were sequenced using Big Dye Terminator Cycle Sequencing Kit (Perkin Elmer Biosystems) and automated sequencing.

DNA target AGCTTGGCG = test: dissociation of zinc finger phage from DNA target by actinomycin D; type: binding
Description: (§1) This example describes phage that bound DNA targets with higher affinity in the absence of ligand. These phage were isolated using either: (a) the same method as in example 1.1, or (b) by selection in the absence of small molecule and phage elution from DNA using a small molecule.
(§2) Phage selection is over 4 rounds. Binding reactions contain […] biotinylated DNA site immobilised on 50 mg streptavidin coated beads (Dynal) and a 1 ml solution of ;zinc finger phage library (as described in 1.1) Reactions were incubated for 1 h on a rolling platform. After this time, beads were washed 20 times as described in 1.1 and finally phage were eluted from the beads over 5 minutes using a solution containing ligand (10 μM Distamycin A, or 1 μM Actinomycin D in PBS/Zn).
The actinomycin D sensitive clone was selected with the DNA target AGCTTGGCG and its helices were sequenced as: […]

[1] = system: CAT reporter gene downstream of the sequence AAAAAAGGCG; test: transient transfection CAT reporter assay with zinc finger-HSV VP16 fusion; type: cell-based; conditions: in the presence of Distamycin A; zinc finger-HSV VP16 fusion cotransfected
Source text: A reporter system is produced which produces a reporter signal conditionally depending on the binding of the zinc finger DNA binding molecule to its target DNA sequence.
A transient transfection system using zinc finger transcription factors is produced as described in Choo, Y., et al., (1997) J. Mol. Biol 273:525-532. This system comprises an expression plasmid which produces a phage-selected zinc finger fused to the activation domain of HSV VP 16. and a reporter plasmid which contains the recognition sequence of the zinc finger upstream of a CAT reporter gene.
Thus, a zinc finger which recognises the DNA sequence AAAAAAGGCG is selected by phage display as described in Example 1. By the method of the preceding examples said zinc finger is used to construct transcription factors as described above.
A transient expression experiment is conducted, wherein the CAT reporter gene on the reporter plasmid is placed downstream of the sequence AAAAAAGGCG. The reporter plasmid is cotransfected with a plasmid vector expressing the zinc finger-HSV fision under the control of a constitutive promoter. No activation of CAT gene expression is observed.

[2] = system: DNA target AAAAAGCGGAAAAA; test: dissociation of zinc finger phage from DNA target by distamycin A; type: binding
Description: as §1, §2
Some phage isolated by either of the above methods (a or b) bound DNA in the absence of ligand but could be displaced by concentrations of distamycin A at 10 μM and actinomycin D at 1 μM. The distamycin sensitive clone was selected using the DNA target AAAAAGCGGAAAAA and its helices were sequenced as: […]

DNA sequence AAAAAGGCG = test: phage ELISA: zinc finger phage binding to DNA target site in presence and absence of distamycin A; conditions: FIG. 1; phage clone 3 (3/2F) and clone 4 (4/EF)
[3] = phage bound DNA in the absence of ligand

Question: For `Cc1c2oc3c(C)ccc(C(=O)N[C@@H]4C(=O)N[C@H](C(C)C)C(=O)N5CCC[C@H]5C(=O)N(C)CC(=O)N(C)[C@@H](C(C)C)C(=O)O[C@@H]4C)c3nc-2c(C(=O)N[C@@H]2C(=O)N[C@H](C(C)C)C(=O)N3CCC[C@H]3C(=O)N(C)CC(=O)N(C)[C@@H](C(C)C)C(=O)O[C@@H]2C)c(N)c1=O` [Actinomycin D] (I: T[dV]P[Sar][NMeV] / II: T[dV]P[Sar][NMeV]; ester I:1-I:C, II:1-II:C; linker I:N-II:N via Actinocin(9to1)), which “effect of Actinomycin D concentration on binding of phage to the DNA sequence AGCTTGGCG” value (DNA sequence AGCTTGGCG) is on record?
Answer: causes phage binding to nucleic acid

Question: And the “dissociation / displacement of phage from DNA by actinomycin D” value (DNA target AGCTTGGCG; FIG. 6, actinomycin D sensitive clone)?
Answer: dissociated from the DNA

Question: And the “actinomycin D concentration at which DNA-bound phage could be displaced” value (DNA target AGCTTGGCG; [3])?
Answer: 1 µM

Question: Which “CAT reporter gene expression” value [1] does the source give for `Cn1cc(NC(=O)c2cc(NC(=O)c3cc(NC=O)cn3C)cn2C)cc1C(=O)NCCC(=N)N` [Distamycin A] here?
Answer: CAT expression is observed

Question: And the “dissociation / displacement of phage from DNA by distamycin A” value ([2]; FIG. 6, distamycin sensitive clone)?
Answer: dissociated from the DNA

Question: And the “distamycin A concentration at which DNA-bound phage could be displaced” value [2, 3]?
Answer: 10 µM

Question: And the “effect of Distamycin A concentration on binding of phage to the DNA sequence AAAAAGGCG” value (DNA sequence AAAAAGGCG)?
Answer: causes phage binding to nucleic acid
